Reference: ChEMBL document CHEMBL1151247, “Quinazolin-4-one derivatives from Streptomyces isolates” (J Nat Prod, 2004)
Calls of active or inactive are those of the source.

What was measured:
Format in all cases: functional, organism-based
[1] = system: Chlorella vulgaris; test: Antialgal activity against Chlorella vulgaris
[2] = system: Chlorella sorokiniana; test: Antialgal activity against Chlorella sorokiniana
[3] = system: Desmodesmus subspicatus; test: Antialgal activity against Scenedesmus subspicatus
[4] = system: Escherichia coli; test: Antibacterial activity against Escherichia coli
[5] = system: Bacillus subtilis; test: Antibacterial activity against Bacillus subtilis
[6] = system: Candida albicans; test: Antifungal activity against Candida albicans
[7] = system: Rhizomucor miehei; test: Antifungal activity against Mucor miehei
[8] = system: Staphylococcus aureus; test: Antibacterial activity against Staphylococcus aureus
[9] = system: Streptomyces viridochromogenes; test: Antibacterial activity against Streptomyces viridochromogenes

Measured: Activity

C[C@@H](O)[C@@]1(C)NC(=O)c2ccccc2N1 (relative stereo)
inactive: [1] | [2] | [3] | [4] | [5] | [6] | [7] | [8] | [9]

C[C@@H](O)[C@]1(C)NC(=O)c2ccccc2N1 (relative stereo)
inactive: [1] | [2] | [3] | [4] | [5] | [6] | [7] | [8] | [9]
